The target in one data set is tau construct K19 (Homo sapiens, UniProt P10636). Briefly: Thioflavine S (ThS) assay for aggregation of tau. To be noted: 10 μM tau construct K19, 2.5 μM heparin, ThS fluorescence; for DC50: read-out: DC50; for IC50: over night at 37° C., read-out: ID50 (the source's name). It is filed as biochemical. As for the experimental part: Thioflavine S (ThS) Assay for aggregation of tau: 10 μM of the tau construct K19 were incubated with compounds in a concentration range from 1 nM up to 200 μM in the presence of 2.5 μM heparin in 50 mM NH4Ac buffer over night at 37° C. After addition of 20 μM ThS the signal was measured at 521 nm (emission) at an excitation wavelength of 440 nm. The results of this assay are presented in the IC50 column and DC50 column of Table 1 below.

The next data set has as its system uninduced N2A cells. It counts as cell-based. The settings on record: cell death as percent of LDH released into medium vs total LDH, compound 10 μM. As for the experimental part: Neurotoxicity assay: Neurotoxicity was assessed using an LDH (lactate dehydrogenase) assay kit (Roche, Mannheim, Germany) according to the manufacturer's specifications. In the viability assay the aggregation inhibitor compound was added at a final concentration of 10 μM to uninduced N2A cells. The activity of LDH was measured spectrophotometrically at 492 nm. Cell death was calculated as percent of LDH released into medium, compared to total LDH obtained after total cell lysis.

tau construct K19, sequence (P10636 with tags, fused parts or gaps isoform P10636-2 limits assumed): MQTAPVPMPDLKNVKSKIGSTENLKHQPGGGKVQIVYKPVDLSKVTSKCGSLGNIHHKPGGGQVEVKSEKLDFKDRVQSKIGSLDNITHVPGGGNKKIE

On to `O=C(NNc1nc(-c2cc3ccccc3o2)cs1)c1ccc(Cl)cc1` [Comp. 26, N′-[4-(1-benzofuran-2-yl)-1,3-thiazol-2-yl]-4-chlorobenzohydrazide], for which, on tau construct K19, the DC50 amounted to 21.3 µM and the IC50 came out at 47.2 µM. Also, in the data set on uninduced N2A cells, the LDH was −0.6%.
The matching figures for `O=C(NNc1nc(-c2cccs2)cs1)c1ccc(Cl)cc1` [Comp. 29, 4-chloro-N′-(4-thien-2-yl-1,3-thiazol-2-yl)benzohydrazide]: above 200 µM, 146 µM and 3.8%.
The matching figures for `O=C(NNc1nc(-c2ccc(Br)cc2)cs1)c1cccnc1` [Comp. 12, N′-[4-(4-bromophenyl)-1,3-thiazol-2-yl]nicotinohydrazide]: 0.5 µM, 3.3 µM and 13.6%.
The matching figures for `O=C(NNc1nc(-c2ccc(Br)cc2)cs1)c1ccco1` [Comp. 28, N′-[4-(4-bromophenyl)-1,3-thiazol-2-yl]-2-furohydrazide]: 2 µM, 60.9 µM and 3.8%.
As to `O=C(NNc1nc(-c2ccccc2)cs1)c1ccc(-c2ccccc2)cc1` [Comp. 37, N′-(4-phenyl-1,3-thiazol-2-yl)-1,1′-biphenyl-4-carbohydrazide], on tau construct K19, the DC50 was above 200 µM and the IC50 is above 200 µM. In the data set on uninduced N2A cells, the LDH is 3.6%.
As to `O=C(NNc1nc(-c2ccccc2)cs1)c1cccs1` [Comp. 22, N′-(4-phenyl-1,3-thiazol-2-yl)thiophene-2-carbohydrazide], at tau construct K19, the DC50 turned out to be 35.5 µM and the IC50 amounted to 25.3 µM. Further, in the data set with uninduced N2A cells, the LDH is 14.8%.
As for `COc1cccc(-c2csc(NNC(=O)c3ccncc3)n2)c1` [Comp. 35, N′-[4-(3-methoxyphenyl)-1,3-thiazol-2-yl]isonicotinohydrazide], at tau construct K19, the DC50 is above 200 µM and the IC50 was above 200 µM. Further, the LDH with uninduced N2A cells is 3.2%.
Turning to `O=C(NNc1nc(-c2ccccc2)cs1)c1ccc2c(c1)OCO2` [Comp. 45, N′-(4-phenyl-1,3-thiazol-2-yl)-1,3-benzodioxole-5-carbohydrazide], on tau construct K19, the DC50 is above 200 µM and the IC50 was above 200 µM. The LDH with uninduced N2A cells was 22.6%.
In the case of `O=C(NNc1nc(-c2ccccc2)cs1)c1cccnc1` [Comp. 1, N′-(4-Phenylthiazol-2-yl)nicotinohydrazide], at tau construct K19, the DC50 was determined as 1.7 µM and the IC50 is 17 µM. The LDH in the data set on uninduced N2A cells is reported as 56.8%.
For `[N-]=[N+]=Nc1ccc(-c2csc(NNC(=O)c3ccc(F)cc3)n2)cc1` [Comp. 14, N′-[4-(4-azidophenyl)-1,3-thiazol-2-yl]-4-fluorobenzohydrazide] the same measures were 1.3 µM, 4.7 µM and 42.5%.
Regarding `CC(C)(C)c1csc(NNC(=O)c2ccc(Cl)cc2)n1` [Comp. 48, N′-(4-tert-butyl-1,3-thiazol-2-yl)-4-chlorobenzohydrazide], at tau construct K19, the DC50 is above 200 µM and the IC50 is above 200 µM. For the same molecule, the LDH with uninduced N2A cells worked out at 48.1%.
For `O=C(NNc1nc(-c2ccc(N3CCCC3)cc2)cs1)c1ccc(F)cc1` [Comp. 15, 4-fluoro-N′-[4-(4-pyrrolidin-1-ylphenyl)-1,3-thiazol-2-yl]benzohydrazide], on tau construct K19, the DC50 is 0.7 µM and the IC50 is 4.9 µM. Further, the LDH with uninduced N2A cells is −1.1%.
Consider `O=C(NNc1nc2c(s1)Cc1ccccc1-2)c1ccc2c(c1)OCO2` [Comp. 44, N′-8H-indeno[1,2-d][1,3]thiazol-2-yl-1,3-benzodioxole-5-carbohydrazide], for which, at tau construct K19, the DC50 was above 200 µM and the IC50 was above 200 µM. For the same molecule, the LDH in the data set on uninduced N2A cells is 18.8%.
Regarding `O=C(NNc1nc(-c2cccc([N+](=O)[O-])c2)cs1)c1ccccc1F` [Comp. 73, 2-fluoro-N′-[4-(3-nitrophenyl)-1,3-thiazol-2-yl]benzohydrazide], at tau construct K19, the DC50 stood at 38.5 µM and the IC50 turned out to be 17.5 µM.
With `O=C(NNc1nc(-c2ccc([N+](=O)[O-])cc2)cs1)Nc1ccccc1` [Comp. 6], at tau construct K19, the DC50 worked out at 33.5 µM and the IC50 is 10.8 µM. Besides, the LDH in the data set on uninduced N2A cells came out at 2.1%.
For `O=C(NNc1nc(-c2ccc(Cl)cc2)cs1)c1ccccc1` [Comp. 71, N′-[4-(4-chlorophenyl)-1,3-thiazol-2-yl]benzohydrazide], on tau construct K19, the DC50 was above 200 µM and the IC50 was above 200 µM.
For `O=C(NNc1nc(-c2ccc(Br)cc2)cs1)c1ccc2c(c1)OCO2` [Comp. 38, N′-[4-(4-bromophenyl)-1,3-thiazol-2-yl]-1,3-benzodioxole-5-carbohydrazide], at tau construct K19, the DC50 is above 200 µM and the IC50 is above 200 µM. The LDH with uninduced N2A cells stood at 4.6%.
As for `O=C(NNc1nc(-c2cc3ccccc3oc2=O)cs1)c1ccc2c(c1)OCO2` [Comp. 33, N′-[4-(2-oxo-2H-chromen-3-yl)-1,3-thiazol-2-yl]-1,3-benzodioxole-5-carbohydrazide], on tau construct K19, the DC50 is above 200 µM and the IC50 is above 200 µM. Moreover, in the data set on uninduced N2A cells, the LDH came to 2.0%.
As for `O=C(NNc1nc(-c2ccc([N+](=O)[O-])cc2)cs1)c1ccco1` [Comp. 17, N′-[4-(4-nitrophenyl)-1,3-thiazol-2-yl]-2-furohydrazide], at tau construct K19, the DC50 is 0.8 µM and the IC50 came to 6.3 µM. The LDH in the data set with uninduced N2A cells is 4.9%.
For `O=C(NNc1nc(-c2ccc(Cl)cc2)cs1)c1ccccc1F` [Comp. 72, N′-[4-(4-chlorophenyl)-1,3-thiazol-2-yl]-2-fluorobenzohydrazide], at tau construct K19, the DC50 is above 200 µM and the IC50 stood at 101 µM.
Regarding `O=C(NNc1nc(-c2cc3ccccc3oc2=O)cs1)c1ccc(F)cc1` [Comp. 5, 4-Fluoro-N′-(4-(2-oxo-2H-chromen-3-yl)thiazol-2-yl)benzohydrazide], at tau construct K19, the DC50 was above 200 µM and the IC50 came to 47.2 µM. Besides, in the data set with uninduced N2A cells, the LDH is on record as 8.6%.
Regarding `COc1ccc(-c2csc(NNC(=O)c3ccccc3F)n2)cc1` [Comp. 70, 2-fluoro-N′-[4-(4-methoxyphenyl)-1,3-thiazol-2-yl]benzohydrazide], at tau construct K19, the DC50 was 30.5 µM and the IC50 is 20.4 µM.
For `CN(Nc1nc(-c2ccc([N+](=O)[O-])cc2)cs1)C(=O)c1ccc(-c2ccccc2)cc1` [Comp. 76, N-methyl-N′-[4-(4-nitrophenyl)-1,3-thiazol-2-yl]-1,1′-biphenyl-4-carbohydrazide] the same measures were 138 µM and 67.6 µM.
The matching figures for `COc1ccc(-c2csc(NNC(=O)c3ccccc3)n2)cc1` [Comp. 69, N′-[4-(4-methoxyphenyl)-1,3-thiazol-2-yl]benzohydrazide]: 19.4 µM and 51.3 µM.
The matching figures for `CN(C(=O)c1ccc(-c2ccccc2)cc1)N(C)c1nc(-c2ccc([N+](=O)[O-])cc2)cs1` [Comp. 77, N,N′-dimethyl-N′-[4-(4-nitrophenyl)-1,3-thiazol-2-yl]-1,1′-biphenyl-4-carbohydrazide]: 17.7 µM and 10.9 µM.
Turning to `O=C(NNc1nc(-c2ccc(-c3ccccc3)cc2)cs1)c1ccccc1F` [Comp. 74, N′-[4-(1,1′-biphenyl-4-yl)-1,3-thiazol-2-yl]-2-fluorobenzohydrazide], at tau construct K19, the DC50 was determined as 53.9 µM and the IC50 came out at 20.5 µM.
